Source: article PMC9303812, “Asymmetrically Substituted m‐Terphenyl Phosphates Inhibit the Transcription Factor STAT5a” (Chembiochem, 2021)

Tests used:
STAT5a [1] = biological target: T1, STAT5a (Homo sapiens, UniProt P42229); assay: Fluorescence polarization (FP) binding assay, STAT5a
T1 sequence (P42229 1-794): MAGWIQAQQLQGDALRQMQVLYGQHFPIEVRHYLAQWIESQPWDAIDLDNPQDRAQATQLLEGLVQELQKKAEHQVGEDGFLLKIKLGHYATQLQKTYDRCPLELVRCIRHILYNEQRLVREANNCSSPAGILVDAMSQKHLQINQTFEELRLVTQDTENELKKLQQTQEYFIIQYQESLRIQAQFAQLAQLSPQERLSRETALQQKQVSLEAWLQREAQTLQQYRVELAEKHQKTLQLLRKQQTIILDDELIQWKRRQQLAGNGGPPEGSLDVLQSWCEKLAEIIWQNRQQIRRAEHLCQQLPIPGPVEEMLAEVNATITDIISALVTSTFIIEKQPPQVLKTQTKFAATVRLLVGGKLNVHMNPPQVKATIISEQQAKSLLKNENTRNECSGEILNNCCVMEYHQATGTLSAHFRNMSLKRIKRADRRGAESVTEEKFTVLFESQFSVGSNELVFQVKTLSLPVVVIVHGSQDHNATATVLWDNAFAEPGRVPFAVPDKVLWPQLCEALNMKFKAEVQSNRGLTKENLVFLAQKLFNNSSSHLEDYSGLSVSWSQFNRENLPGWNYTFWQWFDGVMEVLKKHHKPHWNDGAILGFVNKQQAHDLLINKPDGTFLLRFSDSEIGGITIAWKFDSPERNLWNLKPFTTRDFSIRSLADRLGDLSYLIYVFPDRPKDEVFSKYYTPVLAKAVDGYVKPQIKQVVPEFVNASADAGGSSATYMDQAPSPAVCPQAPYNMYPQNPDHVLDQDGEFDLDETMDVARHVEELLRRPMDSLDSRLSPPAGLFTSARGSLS
Experimental: (§1) Table S1: Activities of test compounds against STAT5a and STAT5b in FP assays . Experiments were carried out in triplicate (n = 3) unless stated otherwise. n/a: not applicable.
(§2) [a]data taken from the literature.[1]
(§3) Ki values were calculated from IC50 values using the published equation.[2] […]
(§4) Table S2: Activities of 12 against STAT5 proteins in FP assays.
(§5) Fluorescence polarization assays
(§6) Fluorescence polarization assays were essentially carried out as previously described.[1] These assays quantitate to which extent a test compound is able to interfere with binding between a STAT protein and a fluorescein-labeled phosphotyrosine-containing peptide, which is known to bind to the SH2 domain of the respective STAT protein. The following protein […]
(§7) concentrations were used: 100 nM for STAT1, 150 nM for STAT3, 30 nM for STAT4, 180 nM for STAT5a, 90 nM for STAT5b and 105 nM for STAT6. All peptides were used at a concentration of 10 nM. The following peptides were used: 5 -carboxyfluorescein -GpYDKPHVL for STAT1; 5-carboxyfluorescein -GpYLPQTV-NH2 for STAT3; 5-carboxyfluorescein-GpYLPQNID-OH for STAT4; 5-carboxyfluorescein-GpYLVLDKW for STAT5a/b, and 5-carboxyfluorescein-GpYVPWQDLI-OH for STAT6. As a buffer system, 10 mM Tris (pH 8.0), 50 mM NaCl, 1 mM EDTA, 1 mM DTT, 0.1 % Nonidet P-40 substitute, and 2 % DMSO in water was used. All compounds tested were incubated for 1 h with the protein. Subsequently, the fluorescein-labeled peptide was added and the fluorescence polarization was measured with an Infinite F500 plate reader (Tecan) after another hour. IC50 values were converted to Ki-values using the published equation.[2]

STAT5b = biological target: T2, STAT5b (Homo sapiens, UniProt P51692); assay: Fluorescence polarization (FP) binding assay, STAT5b; settings: for inhibition at 200 µM: read-out: STAT5b inhibition at 200 μM
T2 sequence (P51692 1-787): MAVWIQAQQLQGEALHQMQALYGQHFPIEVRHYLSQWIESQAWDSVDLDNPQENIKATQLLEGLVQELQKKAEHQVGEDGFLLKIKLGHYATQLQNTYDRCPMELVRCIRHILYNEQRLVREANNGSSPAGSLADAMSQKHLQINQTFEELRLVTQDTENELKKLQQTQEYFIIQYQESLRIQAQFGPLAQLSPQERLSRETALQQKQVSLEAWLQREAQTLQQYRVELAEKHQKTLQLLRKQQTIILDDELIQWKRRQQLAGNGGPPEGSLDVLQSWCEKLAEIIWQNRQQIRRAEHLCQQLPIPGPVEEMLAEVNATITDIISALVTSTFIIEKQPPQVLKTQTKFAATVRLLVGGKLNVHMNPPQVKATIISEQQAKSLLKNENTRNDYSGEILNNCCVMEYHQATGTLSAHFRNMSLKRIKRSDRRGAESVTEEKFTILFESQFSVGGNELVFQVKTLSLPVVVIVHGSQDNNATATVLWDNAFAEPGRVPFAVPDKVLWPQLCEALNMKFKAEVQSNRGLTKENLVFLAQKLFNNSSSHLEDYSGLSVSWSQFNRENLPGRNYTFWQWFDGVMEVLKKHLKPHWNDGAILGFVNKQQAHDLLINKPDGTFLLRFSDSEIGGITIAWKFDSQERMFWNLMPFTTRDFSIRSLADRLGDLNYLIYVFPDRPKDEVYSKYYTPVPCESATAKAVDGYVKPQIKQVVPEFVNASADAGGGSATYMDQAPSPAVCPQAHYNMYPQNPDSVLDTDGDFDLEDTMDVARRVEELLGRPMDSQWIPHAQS
Experimental: as §1, §2, §3, §4, §5, §6, §7

STAT5a [2] = biological target: T1, STAT5a; settings: cited from earlier work

Row | SMILES | IC50 (STAT5a [1]) [µM] | Ki (STAT5a [1]) [µM] | melting point [°C] | IC50 (STAT5b) [µM] | Ki (STAT5b) [µM] | inhibition at 200 µM (STAT5b) [%] | selectivity for STAT5a over STAT5b (STAT5a [2])
1 | COc1cc(-c2cc(OP(=O)(O)O)cc(-c3ccc(Cl)cc3)c2)cc(OC)c1OC [6 c] | 45.7 ± 3.3 | 22.6 ± 1.6 | 129 | 93.8 ± 1.5 | 46.1 ± 0.8 | – | –
2 | COc1cc(-c2cc(OP(=O)(O)O)cc(-c3ccc(C(C)(C)C)cc3)c2)cc(OC)c1OC [6 j] | 66.9 ± 4.9 | 33.2 ± 2.4 | – | 51.4 ± 4.9 | 25.3 ± 2.4 | – | –
3 | COc1cc(-c2cc(OP(=O)(O)O)cc(-c3ccc(C(N)=O)cc3)c2)cc(OC)c1OC [6 f] | 68.9 ± 4.9 | 34.1 ± 2.4 | – | – | – | 21 ± 6 | –
4 | COc1cc(-c2cc(OP(=O)(O)O)cc(-c3cc(Cl)c(Cl)c(Cl)c3)c2)cc(OC)c1OC [6 a] | 21.8 ± 0.9 | 10.2 ± 0.4 | – | 47 ± 2.6 | 23.1 ± 1.3 | – | –
5 | CCOC(=O)c1ccc(-c2cc(OP(=O)(O)O)cc(-c3cc(OC)c(OC)c(OC)c3)c2)cc1 [6 g] | 91.2 ± 5.5 | 45.2 ± 2.7 | 150 | 125 ± 3.7 | 61.3 ± 1.8 | – | –
6 | COc1cc(-c2cc(OP(=O)(O)O)cc(-c3ccc(C(C)C)cc3)c2)cc(OC)c1OC [6 i] | 48.5 ± 4.8 | 24 ± 2.4 | 182 | 51.8 ± 5.1 | 25.5 ± 2.5 | – | –
7 | COc1cc(-c2cc(OP(=O)(O)O)cc(-c3ccc(Cl)c(F)c3)c2)cc(OC)c1OC [6 e] | 34.7 ± 4.4 | 17.1 ± 2.2 | 127 | 104 ± 9.5 | 51.2 ± 4.7 | – | –
8 | COc1cc(-c2cc(OP(=O)(O)O)cc(-c3ccc(F)cc3)c2)cc(OC)c1OC [6 d] | 66.5 ± 5 | 33 ± 2.5 | 165 | – | – | 51 ± 4 | –
9 | COc1cc(-c2cc(OP(=O)(O)O)cc(-c3cc(OC)c(OC)c(OC)c3)c2)cc(OC)c1OC [compound 1] | – | – | – | – | – | – | at least 9 fold
10 | COc1cc(-c2cc(OP(=O)(O)O)cc(-c3ccc(C(=O)O)cc3)c2)cc(OC)c1OC [6 h] | 36.8 ± 2.2 | 18.2 ± 1.1 | 152 | – | – | 50 ± 2 | –
